Measured values taken from ChEMBL document CHEMBL1201862, “PubChem BioAssay data set” (2004).
The source made the active and inactive calls.

Experiments:
Cytochrome P450 2C19 = Cytochrome P450 2C19 (Homo sapiens, UniProt P33261); assay: Cytochrome panel assay with activity outcomes. Panel member name: p450-cyp2c19 Compounds with AC50 equal or less than 10 uM are considered active; assay type: functional
Cytochrome P450 2D6 = Cytochrome P450 2D6 (Homo sapiens, UniProt P10635);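 further: CYP2D6 member of a cytochrome P450 panel assay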
Sequence of Cytochrome P450 2D6 (P10635 whole entry): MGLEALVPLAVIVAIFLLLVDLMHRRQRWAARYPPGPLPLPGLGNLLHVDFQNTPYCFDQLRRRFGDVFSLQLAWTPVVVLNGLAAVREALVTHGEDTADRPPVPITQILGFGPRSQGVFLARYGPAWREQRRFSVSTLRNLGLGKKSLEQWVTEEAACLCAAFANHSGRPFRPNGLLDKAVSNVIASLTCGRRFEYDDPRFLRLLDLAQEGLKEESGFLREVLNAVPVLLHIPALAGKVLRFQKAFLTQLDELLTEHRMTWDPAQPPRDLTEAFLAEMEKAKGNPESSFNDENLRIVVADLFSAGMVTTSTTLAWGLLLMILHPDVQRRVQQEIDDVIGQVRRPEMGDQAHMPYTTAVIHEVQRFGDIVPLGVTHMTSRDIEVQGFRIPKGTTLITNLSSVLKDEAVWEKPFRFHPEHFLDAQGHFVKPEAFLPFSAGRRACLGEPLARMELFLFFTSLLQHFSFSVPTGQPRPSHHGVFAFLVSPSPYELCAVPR

[1] = microbe, parasite or virus in culture; assay type: functional; conditions: Mycobacterium tuberculosis
[2] = inhibitors of intracellular T. cruzi replication, confirmation, NIH3T3 host cells, beta-gal luminescence (AID 2044); assay type: functional, cell-based;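 further: intracellular parasites grown in NIH/3T3 mouse fibroblasts as host cells; luminescent beta-galactosidase reporter signal from transgenic T. cruzi replicating inside host cells; inhibitors lower the luminescence signal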
[3] = Luminescence Cell-Based Dose Retest to Confirm Inhibitors of Cancer Stem Cells. [Related pubchem assays (depositor defined):AID2717, AID2721]; assay type: functional; conditions: Homo sapiens
[4] = cytotoxicity in HMLE control line with eGFP shRNA, dose response, counter-screen for HMLE_sh_ECad selective toxicity project, cell-based, HMLE_sh_eGFP, luminescence (AID 463074); assay type: functional, Homo sapiens;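 further: HMLE human mammary epithelial cells expressing control shRNA against eGFP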
[5] = cytotoxicity toward NIH3T3 fibroblasts, dose response, counter-screen, cell-based, ATP luminescence, mouse fibroblasts (AID 2010); assay type: functional;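 further: cells exposed to compound for about 90 hours before reading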
Hexokinase-1 = biological target: T1, Hexokinase-1 (Homo sapiens, UniProt P19367); assay: SAR analysis of small molecule inhibitors of hexokinase domain containing I (HKDC1) in the hexokinase 1 selectivity assay. [Related pubchem assays (depositor defined):AID493160, AID493190]; assay type: functional
T1 sequence (P19367 whole entry): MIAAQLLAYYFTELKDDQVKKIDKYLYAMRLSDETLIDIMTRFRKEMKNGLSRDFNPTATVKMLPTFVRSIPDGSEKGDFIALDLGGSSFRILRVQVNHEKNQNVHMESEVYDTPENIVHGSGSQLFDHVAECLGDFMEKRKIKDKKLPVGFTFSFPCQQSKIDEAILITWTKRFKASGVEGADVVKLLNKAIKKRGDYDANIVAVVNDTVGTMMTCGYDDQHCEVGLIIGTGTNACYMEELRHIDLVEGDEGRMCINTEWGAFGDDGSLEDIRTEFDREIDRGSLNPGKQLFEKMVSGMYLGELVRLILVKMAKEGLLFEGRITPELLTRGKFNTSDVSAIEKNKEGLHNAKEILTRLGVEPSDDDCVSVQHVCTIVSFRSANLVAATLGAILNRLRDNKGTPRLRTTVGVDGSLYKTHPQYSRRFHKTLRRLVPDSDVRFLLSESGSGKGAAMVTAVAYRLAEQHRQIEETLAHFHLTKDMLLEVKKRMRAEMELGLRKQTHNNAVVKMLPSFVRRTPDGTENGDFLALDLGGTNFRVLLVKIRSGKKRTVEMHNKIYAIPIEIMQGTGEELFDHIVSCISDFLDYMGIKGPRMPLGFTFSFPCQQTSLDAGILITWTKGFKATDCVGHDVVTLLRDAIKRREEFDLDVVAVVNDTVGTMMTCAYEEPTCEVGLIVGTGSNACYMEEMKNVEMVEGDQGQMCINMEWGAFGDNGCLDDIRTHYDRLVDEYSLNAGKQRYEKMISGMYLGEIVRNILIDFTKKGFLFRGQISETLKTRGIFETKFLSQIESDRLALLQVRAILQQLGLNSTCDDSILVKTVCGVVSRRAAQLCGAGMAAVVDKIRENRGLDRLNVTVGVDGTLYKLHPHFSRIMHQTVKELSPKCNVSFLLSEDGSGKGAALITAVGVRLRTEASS

Hexokinase HKDC1 = biological target: T2, Hexokinase HKDC1 (Homo sapiens, UniProt Q2TB90); assay: SAR analysis of small molecule inhibitors of hexokinase domain containing I (HKDC1). [Related pubchem assays (depositor defined):AID493160, AID493190]; assay type: functional
T2 sequence (Q2TB90 whole entry): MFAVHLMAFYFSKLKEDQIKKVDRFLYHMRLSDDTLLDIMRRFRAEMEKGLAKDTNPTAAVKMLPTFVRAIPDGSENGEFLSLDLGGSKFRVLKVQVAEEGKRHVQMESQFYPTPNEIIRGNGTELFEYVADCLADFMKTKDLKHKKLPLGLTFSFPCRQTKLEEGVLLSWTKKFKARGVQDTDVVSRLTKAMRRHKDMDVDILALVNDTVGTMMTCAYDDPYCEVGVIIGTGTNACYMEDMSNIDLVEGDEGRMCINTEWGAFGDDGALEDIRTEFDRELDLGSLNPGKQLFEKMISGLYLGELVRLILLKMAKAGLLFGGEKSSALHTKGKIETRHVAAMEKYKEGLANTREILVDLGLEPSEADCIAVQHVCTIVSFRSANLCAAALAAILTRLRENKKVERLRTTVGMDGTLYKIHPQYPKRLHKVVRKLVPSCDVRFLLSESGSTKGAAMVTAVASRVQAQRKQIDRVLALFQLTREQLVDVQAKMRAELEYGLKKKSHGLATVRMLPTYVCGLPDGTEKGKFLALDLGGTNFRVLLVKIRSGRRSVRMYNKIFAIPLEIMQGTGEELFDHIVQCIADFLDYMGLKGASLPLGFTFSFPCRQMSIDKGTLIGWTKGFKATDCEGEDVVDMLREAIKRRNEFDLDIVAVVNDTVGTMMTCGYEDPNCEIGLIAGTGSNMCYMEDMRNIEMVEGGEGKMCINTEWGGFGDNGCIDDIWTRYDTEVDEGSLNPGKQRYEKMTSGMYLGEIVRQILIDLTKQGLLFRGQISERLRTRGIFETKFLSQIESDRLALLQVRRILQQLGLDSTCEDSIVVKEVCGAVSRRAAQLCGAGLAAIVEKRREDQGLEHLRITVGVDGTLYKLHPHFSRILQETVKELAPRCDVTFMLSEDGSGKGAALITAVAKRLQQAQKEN

[6] = C. albicans growth with fluconazole, confirmation, fluorescence, retest (AID 2467); assay type: functional, cell-based
[7] = biological target: Serine/threonine-protein phosphatase (Candida dubliniensis (strain CD36 / CBS 7987 / NCPF 3949 / NRRLY-17841) (Yeast), UniProt B9W6M3); assay: calcineurin pathway inhibitors in yeast reporter, dose response, S. cerevisiae, CDRE-lacZ, luminescence, secondary (AID 2388); assay type: functional, cell-based;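 further: yeast reporter cells carrying a calcineurin-responsive lacZ construct stimulated with calcium chloride; luminescent beta-galactosidase reporter signal in whole cells rather than isolated phosphatase activity; potency for inhibition where a drop in reporter signal means calcineurin blockade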
Sequence of Serine/threonine-protein phosphatase (B9W6M3 whole entry): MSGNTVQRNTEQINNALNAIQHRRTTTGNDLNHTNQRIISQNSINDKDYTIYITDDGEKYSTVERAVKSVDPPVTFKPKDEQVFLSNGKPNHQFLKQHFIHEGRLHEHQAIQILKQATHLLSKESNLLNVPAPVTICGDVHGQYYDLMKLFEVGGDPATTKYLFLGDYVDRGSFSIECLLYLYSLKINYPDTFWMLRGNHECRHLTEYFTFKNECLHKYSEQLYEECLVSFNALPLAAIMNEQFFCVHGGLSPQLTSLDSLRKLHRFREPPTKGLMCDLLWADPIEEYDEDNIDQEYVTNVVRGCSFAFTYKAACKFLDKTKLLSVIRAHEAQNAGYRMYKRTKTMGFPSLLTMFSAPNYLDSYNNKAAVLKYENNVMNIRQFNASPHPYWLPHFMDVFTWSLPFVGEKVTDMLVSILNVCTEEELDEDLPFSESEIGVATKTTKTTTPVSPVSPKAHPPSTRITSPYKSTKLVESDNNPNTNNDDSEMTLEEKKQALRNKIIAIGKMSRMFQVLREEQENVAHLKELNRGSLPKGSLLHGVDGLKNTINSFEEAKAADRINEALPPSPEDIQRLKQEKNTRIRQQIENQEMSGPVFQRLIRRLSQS

[8] = biological target: ATP-dependent molecular chaperone HSP82 (Candida albicans (strain WO-1) (Yeast), UniProt C4YTQ8); assay: loss of DOC-induced GRE-beta-galactosidase reporter signal, dose response, Hsp90 inhibitor project, S. cerevisiae, luminescence (AID 2400); assay type: functional, cell-based;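 further: beta-galactosidase luminescence from glucocorticoid response element reporter as proxy for Hsp90 function; inhibitor potency where signal loss means Hsp90 inhibition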
Sequence of ATP-dependent molecular chaperone HSP82 (C4YTQ8 whole entry): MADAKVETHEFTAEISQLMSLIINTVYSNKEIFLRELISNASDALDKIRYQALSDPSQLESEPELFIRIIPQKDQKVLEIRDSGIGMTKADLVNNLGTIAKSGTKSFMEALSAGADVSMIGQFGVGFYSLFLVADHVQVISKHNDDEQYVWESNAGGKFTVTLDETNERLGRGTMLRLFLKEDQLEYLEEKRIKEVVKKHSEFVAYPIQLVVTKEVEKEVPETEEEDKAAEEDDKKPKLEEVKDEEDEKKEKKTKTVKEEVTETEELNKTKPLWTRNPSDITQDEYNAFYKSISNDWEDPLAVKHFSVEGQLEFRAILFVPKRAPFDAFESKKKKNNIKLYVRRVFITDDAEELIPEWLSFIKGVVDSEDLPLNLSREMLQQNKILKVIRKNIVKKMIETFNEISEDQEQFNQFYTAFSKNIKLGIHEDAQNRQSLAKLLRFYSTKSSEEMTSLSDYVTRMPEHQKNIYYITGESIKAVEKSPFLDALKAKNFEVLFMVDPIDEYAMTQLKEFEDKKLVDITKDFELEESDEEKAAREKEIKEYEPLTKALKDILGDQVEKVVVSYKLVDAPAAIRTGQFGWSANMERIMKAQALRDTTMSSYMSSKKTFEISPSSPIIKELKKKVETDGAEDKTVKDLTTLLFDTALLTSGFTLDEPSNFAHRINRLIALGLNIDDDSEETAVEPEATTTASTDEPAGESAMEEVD

[9] = NIH-3T3 fibroblast cytotoxicity, dose response, cytotoxicity control, cell-based, fluorescence, Alamar Blue, secondary assay (AID 2327); assay type: functional;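 further: NIH-3T3 mouse fibroblasts cultured with fluconazole at 8 µg/mL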
HEK293 [10] = assay: cells; assay type: functional, cell-based; conditions: Homo sapiens
[11] = biological target: T3, Apoptotic protease-activating factor 1 (Homo sapiens, UniProt O14727); assay type: functional
T3 sequence (O14727 whole entry): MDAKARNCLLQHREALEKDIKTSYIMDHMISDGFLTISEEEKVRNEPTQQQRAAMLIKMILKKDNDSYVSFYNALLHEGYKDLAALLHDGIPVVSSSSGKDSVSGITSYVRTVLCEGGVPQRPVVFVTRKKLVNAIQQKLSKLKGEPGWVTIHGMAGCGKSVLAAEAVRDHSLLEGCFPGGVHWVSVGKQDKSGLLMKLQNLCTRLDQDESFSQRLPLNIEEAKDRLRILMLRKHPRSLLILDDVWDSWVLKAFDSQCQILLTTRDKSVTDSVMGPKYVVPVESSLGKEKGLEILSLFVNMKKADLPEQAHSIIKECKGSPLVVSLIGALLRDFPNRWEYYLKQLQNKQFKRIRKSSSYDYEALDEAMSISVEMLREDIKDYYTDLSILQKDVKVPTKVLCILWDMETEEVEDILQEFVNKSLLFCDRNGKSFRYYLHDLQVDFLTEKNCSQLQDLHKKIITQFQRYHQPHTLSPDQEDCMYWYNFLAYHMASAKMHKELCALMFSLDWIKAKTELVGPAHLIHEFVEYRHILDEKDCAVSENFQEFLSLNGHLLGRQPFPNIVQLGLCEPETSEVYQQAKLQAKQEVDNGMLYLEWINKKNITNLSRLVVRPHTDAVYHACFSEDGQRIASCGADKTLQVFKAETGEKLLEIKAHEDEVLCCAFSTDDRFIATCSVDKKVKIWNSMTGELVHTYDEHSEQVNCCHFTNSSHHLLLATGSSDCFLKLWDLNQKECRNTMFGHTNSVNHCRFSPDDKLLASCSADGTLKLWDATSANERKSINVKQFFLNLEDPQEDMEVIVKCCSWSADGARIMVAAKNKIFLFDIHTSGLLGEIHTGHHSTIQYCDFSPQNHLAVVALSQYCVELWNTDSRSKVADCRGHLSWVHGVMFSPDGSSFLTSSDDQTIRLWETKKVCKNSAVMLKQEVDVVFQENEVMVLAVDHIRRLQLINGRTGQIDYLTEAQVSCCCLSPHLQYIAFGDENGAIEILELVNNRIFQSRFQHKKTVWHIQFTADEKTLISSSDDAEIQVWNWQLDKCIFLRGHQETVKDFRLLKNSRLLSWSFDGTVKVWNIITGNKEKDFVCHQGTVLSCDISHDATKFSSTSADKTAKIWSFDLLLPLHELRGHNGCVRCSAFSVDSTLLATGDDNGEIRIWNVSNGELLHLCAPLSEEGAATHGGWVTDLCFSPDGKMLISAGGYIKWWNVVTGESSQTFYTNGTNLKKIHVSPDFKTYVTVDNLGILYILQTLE

[12] = growth suppression of beta-catenin-knockout colon cells, dose response, cell-based, HCT116, human colon tumor (AID 1045); assay type: functional;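 further: HCT116 colon tumor cells with beta catenin knocked out; cells exposed to compound for 60 hours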
[13] = growth suppression of PTEN-null colon cells, dose response, cell-based, HCT116 PTEN knockout (AID 1047); assay type: functional;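 further: HCT116 colon tumor cells with PTEN knocked out; cells exposed to compound for 60 hours before readout; potency for loss of cell viability measured by luminescence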
HEK293 [14] = assay: NOD2 signaling inhibitors in MDP-stimulated cells, cell-based, uHTS, luminescence (AID 2001); assay type: functional; conditions: Homo sapiens
HEK293 [15] = assay: cells; assay type: functional, cell-based; conditions: Homo sapiens; remark: listed apart in the source
INS1 = assay: beta cell apoptosis inhibitors, cytokine rescue, dose response, luminescence, retest (AID 449756); assay type: functional, cell-based; conditions: Rattus norvegicus;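 further: cell death triggered by IL-1 beta plus TNF-alpha plus IFN-gamma mixture; protective hits raise ATP signal compared with cytokine alone wells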
HEK293 [16] = assay: NOD1 signaling inhibitors, primary screen, cell-based, luminescence, uHTS (AID 1578); assay type: functional; conditions: Homo sapiens
Escherichia coli = assay: microbe, parasite or virus in culture
[17] = biological target: T4, Type-1 angiotensin II receptor (Homo sapiens, UniProt P30556); assay: AT1 receptor antagonists, dose response, selectivity assay for APJ receptor antagonist project, cell-based, uHTS hits (AID 463214); assay type: functional;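 further: antagonist potency against angiotensin II stimulated AT1 response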
T4 sequence (P30556 whole entry): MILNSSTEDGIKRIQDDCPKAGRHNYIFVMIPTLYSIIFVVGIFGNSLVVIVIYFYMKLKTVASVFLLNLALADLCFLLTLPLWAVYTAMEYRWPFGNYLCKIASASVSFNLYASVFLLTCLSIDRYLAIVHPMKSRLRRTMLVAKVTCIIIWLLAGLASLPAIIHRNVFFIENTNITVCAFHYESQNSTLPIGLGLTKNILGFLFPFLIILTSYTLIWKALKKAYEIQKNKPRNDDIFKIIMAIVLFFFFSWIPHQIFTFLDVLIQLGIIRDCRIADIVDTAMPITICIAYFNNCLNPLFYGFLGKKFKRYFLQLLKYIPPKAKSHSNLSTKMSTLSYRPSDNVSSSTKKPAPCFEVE

Beta-galactosidase = Beta-galactosidase (Escherichia coli, UniProt Q8VNN2); assay: PubChem AID 485352; assay type: functional
Sequence of Beta-galactosidase (Q8VNN2 whole entry): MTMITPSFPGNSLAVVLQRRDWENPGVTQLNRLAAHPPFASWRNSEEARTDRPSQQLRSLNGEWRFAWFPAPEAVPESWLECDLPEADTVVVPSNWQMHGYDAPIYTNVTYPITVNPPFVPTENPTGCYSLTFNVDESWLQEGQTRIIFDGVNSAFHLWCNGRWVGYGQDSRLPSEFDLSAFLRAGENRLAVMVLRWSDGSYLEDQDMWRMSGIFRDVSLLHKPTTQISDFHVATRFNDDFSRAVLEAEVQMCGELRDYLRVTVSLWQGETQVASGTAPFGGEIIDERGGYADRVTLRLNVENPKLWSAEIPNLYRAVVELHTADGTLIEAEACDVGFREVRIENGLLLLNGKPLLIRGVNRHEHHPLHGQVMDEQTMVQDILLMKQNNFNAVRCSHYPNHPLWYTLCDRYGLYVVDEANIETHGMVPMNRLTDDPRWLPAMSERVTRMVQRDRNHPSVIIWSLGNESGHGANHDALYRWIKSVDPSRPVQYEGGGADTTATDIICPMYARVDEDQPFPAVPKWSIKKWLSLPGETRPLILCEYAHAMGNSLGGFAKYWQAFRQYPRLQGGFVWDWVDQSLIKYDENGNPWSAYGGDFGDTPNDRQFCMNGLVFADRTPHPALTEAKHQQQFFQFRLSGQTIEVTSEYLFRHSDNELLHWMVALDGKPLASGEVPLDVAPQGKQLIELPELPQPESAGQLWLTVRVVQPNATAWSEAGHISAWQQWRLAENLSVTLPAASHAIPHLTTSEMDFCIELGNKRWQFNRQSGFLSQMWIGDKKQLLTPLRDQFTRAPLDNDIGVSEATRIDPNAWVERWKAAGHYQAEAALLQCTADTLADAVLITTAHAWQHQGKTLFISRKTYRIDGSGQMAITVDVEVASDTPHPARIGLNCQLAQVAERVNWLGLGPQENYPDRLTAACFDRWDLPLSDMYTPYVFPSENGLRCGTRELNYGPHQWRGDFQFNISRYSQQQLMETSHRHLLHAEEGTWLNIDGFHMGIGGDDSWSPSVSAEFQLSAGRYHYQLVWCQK

[18] = biological target: T5, Polyadenylate-binding protein 1 (Homo sapiens, UniProt P11940); assay: PABP1 MLLE–PAM2 binding inhibitor potency, dose response, biochemical, fluorescence polarization, FITC-PAM2 peptide (AID 602259); assay type: functional; conditions: read-out: IC50_Mean
T5 sequence (P11940 whole entry): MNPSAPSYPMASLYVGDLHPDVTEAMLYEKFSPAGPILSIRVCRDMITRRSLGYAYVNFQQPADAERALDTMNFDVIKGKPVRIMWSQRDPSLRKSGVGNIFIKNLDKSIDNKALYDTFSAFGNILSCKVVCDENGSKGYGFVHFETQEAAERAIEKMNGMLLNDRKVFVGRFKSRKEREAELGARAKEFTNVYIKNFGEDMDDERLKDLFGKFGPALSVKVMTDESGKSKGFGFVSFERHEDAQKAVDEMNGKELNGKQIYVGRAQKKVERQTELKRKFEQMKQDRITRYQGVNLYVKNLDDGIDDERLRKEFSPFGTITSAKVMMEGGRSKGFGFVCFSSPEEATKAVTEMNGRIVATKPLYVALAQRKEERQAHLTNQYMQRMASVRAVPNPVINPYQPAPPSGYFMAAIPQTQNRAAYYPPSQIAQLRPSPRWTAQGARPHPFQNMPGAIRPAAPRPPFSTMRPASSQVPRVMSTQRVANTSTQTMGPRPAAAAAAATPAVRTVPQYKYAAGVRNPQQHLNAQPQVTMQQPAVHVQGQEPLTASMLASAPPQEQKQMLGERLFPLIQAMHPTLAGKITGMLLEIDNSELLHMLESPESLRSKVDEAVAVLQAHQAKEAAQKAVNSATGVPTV

[19] = biological target: T5, Polyadenylate-binding protein 1; assay: PABP1 MLLE–PAM2 interaction inhibitors, dose response, miRNA deadenylation inhibitor project, biochemical, fluorescence polarization, Cy5-PAM2 peptide, secondary (AID 602260); assay type: functional; conditions: read-out: IC50_Mean

Sequence of Cytochrome P450 2C19 (P33261 whole entry): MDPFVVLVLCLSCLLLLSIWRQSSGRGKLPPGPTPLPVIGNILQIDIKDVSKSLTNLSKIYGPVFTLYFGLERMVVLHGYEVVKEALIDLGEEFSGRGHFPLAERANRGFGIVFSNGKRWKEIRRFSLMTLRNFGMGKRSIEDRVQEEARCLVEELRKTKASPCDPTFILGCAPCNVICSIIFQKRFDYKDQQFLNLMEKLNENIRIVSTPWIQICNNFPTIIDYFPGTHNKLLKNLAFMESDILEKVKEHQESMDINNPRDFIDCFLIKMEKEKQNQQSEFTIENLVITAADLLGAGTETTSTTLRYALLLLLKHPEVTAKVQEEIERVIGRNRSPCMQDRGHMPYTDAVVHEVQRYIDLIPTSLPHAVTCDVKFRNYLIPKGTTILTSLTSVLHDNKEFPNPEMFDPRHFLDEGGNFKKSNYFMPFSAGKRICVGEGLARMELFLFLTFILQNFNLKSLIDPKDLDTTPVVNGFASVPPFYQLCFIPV

## O=C(O)CCCc1ccc2ccc3ccccc3c2c1
Cytochrome P450 2C19
  AC50: inconclusive
Cytochrome P450 2D6
  AC50: inconclusive

## CN(C)S(=O)(=O)c1cccc(NC(=O)CSc2cccc3cccnc23)c1
[1]
  CC50: > 40 µM (active)
[2]
  EC50: 0.802 µM (active)
[3]
  AC50: 12.6 µM (active)
[4]
  AC50: 36.2 µM (active)
[5]
  EC50: 4.3 µM (active)

## CC1CCN(C2=NN3C(=N)/C(=C\c4ccc(OC(=O)c5ccco5)cc4)C(=O)N=C3S2)CC1
[3]
  AC50: 14.6 µM (active)
[4]
  AC50: 25.4 µM (active)

## Cl.N=C(N)N/N=C\c1cnn(C(=N)N)c1
Cytochrome P450 2D6
  AC50: inconclusive

## O=C(CSc1nc2ccccc2[nH]1)Nc1cccc(S(=O)(=O)N2CCOCC2)c1
Hexokinase-1
  IC50: > 80 µM (inactive)
Hexokinase HKDC1
  IC50: > 80 µM (inactive)

## CCOc1ccc(/C=C/C2=CC(C)(C)NC(S)=N2)cc1
[6]
  EC50: 1.95 µM (active)
[7]
  EC50: > 180 µM (inactive)
[8]
  EC50: > 150 µM (inactive)
[9]
  EC50: 17.1 µM (active)

## CCCCCCc1cc2cc(-c3nnc(-c4ccccc4O)o3)c(=O)oc2cc1O
HEK293 [10]
  IC50: 3.37 µM (active)
[11]
  IC50: 89 µM (active)
[12]
  EC50: 11.2 µM (active)
[13]
  EC50: 13 µM (active)
HEK293 [14]
  IC50: 4.36 µM (inactive)
HEK293 [15]
  IC50: > 20 µM (inactive)
INS1
  AC50: 7.17 µM (active)
HEK293 [16]
  EC50: 4.51 µM (active)

## CC(C)(C)CC(=O)Nc1cccc(-c2cn3cccnc3n2)c1
Escherichia coli
  AC50: 45.2 µM (active)

## Cc1ccc(Cn2c(/C=C/c3cccnc3)nc3ccccc3c2=O)cc1
Hexokinase-1
  IC50: > 80 µM (inactive)
Hexokinase HKDC1
  IC50: > 80 µM (inactive)

## Cc1cc(O)ccc1NC(=S)NC(=O)c1cncc(Br)c1
[6]
  EC50: 1.05 µM (active)
[17]
  IC50: 10.5 µM (active)
[7]
  EC50: > 180 µM (inactive)
Beta-galactosidase
  EC50: > 40 µM (inactive)
[8]
  EC50: > 160 µM (inactive)
[9]
  EC50: > 160 µM (inconclusive)
[18]
  IC50: > 66 µM (inactive)
[19]
  IC50: > 66 µM (inactive)
